Values quoted from earlier work, collected in publication PMC6631119, “Nasal Administration and Plasma Pharmacokinetics of Parathyroid Hormone Peptide PTH 1-34 for the Treatment of Osteoporosis” (Pharmaceutics, 2019).
Read-outs that look alike come from different tables or passages of the source.

Settings: cited from earlier work
Source text: Nasal delivery of large peptides such as parathyroid 1-34 (PTH 1-34) can benefit from a permeation enhancer to promote absorption across the nasal mucosa into the bloodstream. […] We report here the plasma pharmacokinetics of PTH 1-34 in healthy human volunteers receiving the liquid nasal spray formulation containing Solutol® HS15 ... || Our previously published preclinical data in rats for a liquid nasal spray formation were encouraging, showing that the nasal systemic absorption of PTH 1-34 was increased considerably when administered in a formulation containing Solutol® HS15. […] This was not consistent with the previous data from our small animal preclinical studies. In the preceding preclinical conscious rat model, we reported the pharmacokinetic performance of an […] PTH 1-34 subcutaneous formulation, an intranasal liquid formulation with no enhancer and an intranasal solution containing Solutol® HS15. PTH 1-34 doses of 80 μg/kg by subcutaneous injection and 100 μg/kg intranasally were given to rats. T ...

[1] = conscious rat, intranasal liquid formulation without enhancer, 100 μg/kg

## CC[C@H](C)[C@H](NC(=O)[C@H](CCC(=O)O)NC(=O)[C@H](CO)NC(=O)[C@@H](NC(=O)[C@@H](N)CO)C(C)C)C(=O)N[C@@H](CCC(N)=O)C(=O)N[C@@H](CC(C)C)C(=O)N[C@@H](CCSC)C(=O)N[C@@H](Cc1cnc[nH]1)C(=O)N[C@@H](CC(N)=O)C(=O)N[C@@H](CC(C)C)C(=O)NCC(=O)N[C@@H](CCCCN)C(=O)N[C@@H](Cc1cnc[nH]1)C(=O)N[C@@H](CC(C)C)C(=O)N[C@@H](CC(N)=O)C(=O)N[C@@H](CO)C(=O)N[C@@H](CCSC)C(=O)N[C@@H](CCC(=O)O)C(=O)N[C@@H](CCCN=C(N)N)C(=O)N[C@H](C(=O)N[C@@H](CCC(=O)O)C(=O)N[C@@H](Cc1c[nH]c2ccccc12)C(=O)N[C@@H](CC(C)C)C(=O)N[C@@H](CCCN=C(N)N)C(=O)N[C@@H](CCCCN)C(=O)N[C@@H](CCCCN)C(=O)N[C@@H](CC(C)C)C(=O)N[C@@H](CCC(N)=O)C(=O)N[C@@H](CC(=O)O)C(=O)N[C@H](C(=O)N[C@@H](Cc1cnc[nH]1)C(=O)N[C@@H](CC(N)=O)C(=O)N[C@@H](Cc1ccccc1)C(=O)O)C(C)C)C(C)C [PTH 1-34, PTH 1-34 acetate]
Conscious rat, intranasal liquid formulation without enhancer (100 μg/kg) relative to subcutaneous injection (80 μg/kg)
  relative bioavailability: 8%
[1]
  Cmax: 2 ng/mL
  Tmax: 13 min
Conscious rat, intranasal solution containing Solutol HS15, 100 μg/kg
  Tmax: ~10 min
rat, intranasal liquid formulation containing Solutol HS15 (100 μg/kg) relative to subcutaneous injection (80 μg/kg)
  relative bioavailability: 78%
rat, subcutaneous injection, 80 μg/kg PTH 1-34, mean
  Cmax: 14.8 ng/mL
